Test results: PMC2248166, “Quantitative peptide binding motifs for 19 human and mouse MHC class I molecules derived using positional scanning combinatorial peptide libraries” (Immunome Research, 2008)

The sequences below were run against HLA A*3001 (Homo sapiens, UniProt P04439, D140H/D185E/E176W/F33S/G80R/H175R/K168Q/R138E/R41S) (assay: biochemical). Settings: not given.
Type: binding

Row | Sequence | Normalized average relative binding affinity (ARB), HLA A*3001
1 | XXVXXXXXX [3064.0058] | 0.0059
2 | XXWXXXXXX [3064.0059] | 0.0080
3 | XXXAXXXXX [3064.0061] | 0.48
4 | XXXCXXXXX [3064.0062] | 0.31

These sequences were tested against HLA A*3201 (Homo sapiens, UniProt P04439, A270S/D101S/D185E/E176V/E277Q/F133L/G103R/G107R/G231S/H175R/I121M/I218V/I322F/K168Q/L105A/L300P/L318F/M331R/P208A/P217A/Q94H/R106L/R138Q/S129P/T104I/T323A/T345S/V100E/V321M/V358M) (assay: biochemical). Settings: not given.
Type: binding

Row | Sequence | Normalized average relative binding affinity (ARB), HLA A*3201
5 | XXVXXXXXX [3064.0058] | 0.31
6 | XXWXXXXXX [3064.0059] | 0.95
7 | XXXAXXXXX [3064.0061] | 0.38
8 | XXXCXXXXX [3064.0062] | 0.12

The sequences below were run against HLA A*6802 (Homo sapiens, UniProt P04439, A269V/D140Y/D185E/E176V/E277Q/E87N/F33Y/G231S/I121R/I166T/I218V/L180W/L300P/L318F/N151K/P208A/P217A/Q86R/R138H/R169H/S129P/T345S/V36M) (assay: not given). Settings: not given.
Type: binding

Row | Sequence | Normalized average relative binding affinity (ARB), HLA A*6802
9 | XXVXXXXXX [3064.0058] | 0.64
10 | XXWXXXXXX [3064.0059] | 0.70
11 | XXXAXXXXX [3064.0061] | 0.24
12 | XXXCXXXXX [3064.0062] | 0.13

What follows are sequences tested against HLA B*0702 (Homo sapiens, UniProt P01889) (assay: not given). Settings: positional scanning combinatorial 9-mer library; normalized to 1.0 for the best residue at each position.
Type: binding

Row | Sequence | Normalized average relative binding affinity (ARB), HLA B*0702
13 | XXVXXXXXX [3064.0058] | 0.040
14 | XXWXXXXXX [3064.0059] | 0.14
15 | XXXAXXXXX [3064.0061] | 0.23
16 | XXXCXXXXX [3064.0062] | 0.18

The sequences below were run against HLA B*0801 (Homo sapiens, UniProt P01889, A93T/A95T/D138N/E176V/E187T/K202T/Q94N/R180D/S35A/V36M/Y33D/Y91F) (assay: biochemical). Settings: not given.
Type: binding

Row | Sequence | Normalized average relative binding affinity (ARB), HLA B*0801
17 | XXVXXXXXX [3064.0058] | 0.024
18 | XXWXXXXXX [3064.0059] | 0.19
19 | XXXAXXXXX [3064.0061] | 0.40
20 | XXXCXXXXX [3064.0062] | 0.41

Each sequence was assayed against HLA B*1501 (Homo sapiens, UniProt P01889, A329T/A93T/A95T/C349S/D201E/D98Y/E187L/E204Q/E69M/E70A/K202T/N87E/Q94N/R155S/R180W/S121R/S35A/S48A/V306I/V36M/Y140S/Y91S) (assay: biochemical). Settings: not given.
Type: binding

Row | Sequence | Normalized average relative binding affinity (ARB), HLA B*1501
21 | XXVXXXXXX [3064.0058] | 0.14
22 | XXWXXXXXX [3064.0059] | 0.16
23 | XXXAXXXXX [3064.0061] | 0.40
24 | XXXCXXXXX [3064.0062] | 0.39

What follows are sequences tested against HLA B*1503 (Homo sapiens, UniProt P01889, A329T/A93T/A95T/C349S/D201E/D98Y/E187L/E204Q/K202T/N87E/Q94N/R155S/R180L/S121R/S35A/V306I/V36M/Y140S/Y91S) (assay: biochemical). Settings: not given.
Type: binding

Row | Sequence | Normalized average relative binding affinity (ARB), HLA B*1503
25 | XXVXXXXXX [3064.0058] | 1.0
26 | XXWXXXXXX [3064.0059] | 0.35
27 | XXXAXXXXX [3064.0061] | 0.41
28 | XXXCXXXXX [3064.0062] | 0.34

Each sequence was assayed against HLA B*2705 (Homo sapiens, UniProt P01889, D138H/D201E/E176V/E204Q/G107R/H137Y/K202T/N104T/N87E/Q56L/Q94K/R106L/R155S/R180L/S101D/S121N/S48T/Y140D/Y33H/Y91C) (assay: not given). Settings: positional scanning combinatorial 9-mer library; normalized to 1.0 for the best residue at each position.
Type: binding

Row | Sequence | Normalized average relative binding affinity (ARB), HLA B*2705
29 | XXVXXXXXX [3064.0058] | 0.19
30 | XXWXXXXXX [3064.0059] | 0.68
31 | XXXAXXXXX [3064.0061] | 0.28
32 | XXXCXXXXX [3064.0062] | 0.25

What follows are sequences tested against HLA B*3501 (Homo sapiens, UniProt P01889, A329T/A93T/A95T/C349S/D201E/D98Y/E176V/E187L/E204Q/E69T/I218V/K202T/L119I/Q94N/R155S/R180L/S121R/S35A/S48A/T118I/V127L/V306I/V36M/Y140S/Y91F) (assay: not given). Settings: not given.
Type: binding

Row | Sequence | Normalized average relative binding affinity (ARB), HLA B*3501
33 | XXVXXXXXX [3064.0058] | 0.19
34 | XXWXXXXXX [3064.0059] | 0.61
35 | XXXAXXXXX [3064.0061] | 0.42
36 | XXXCXXXXX [3064.0062] | 0.089

Each sequence was assayed against HLA B*5101 (Homo sapiens, UniProt P01889, A329T/A93T/A95T/C349S/D138N/D201E/D98Y/E187L/E204Q/E69T/G107R/I218V/K202T/L105A/L119W/N104I/Q94N/R106L/R155S/R180L/S101N/S121T/S35A/S48A/V306I/V36M/Y195H/Y91F) (assay: not given). Settings: not given.
Type: binding

Row | Sequence | Normalized average relative binding affinity (ARB), HLA B*5101
37 | XXVXXXXXX [3064.0058] | 0.25
38 | XXWXXXXXX [3064.0059] | 0.47
39 | XXXAXXXXX [3064.0061] | 0.39
40 | XXXCXXXXX [3064.0062] | 0.26

These sequences were tested against HLA B*5301 (Homo sapiens, UniProt P01889, A329T/A93T/A95T/C349S/D201E/D98Y/E176V/E187L/E204Q/E69T/G107R/I218V/K202T/L105A/L119I/N104I/Q94N/R106L/R155S/R180L/S101N/S121R/S35A/S48A/T118I/V127L/V306I/V36M/Y140S/Y91F) (assay: not given). Settings: not given.
Type: binding

Row | Sequence | Normalized average relative binding affinity (ARB), HLA B*5301
41 | XXVXXXXXX [3064.0058] | 0.11
42 | XXWXXXXXX [3064.0059] | 0.076
43 | XXXAXXXXX [3064.0061] | 0.36
44 | XXXCXXXXX [3064.0062] | 0.14

What follows are sequences tested against HLA B*5401 (Homo sapiens, UniProt P01889, A329T/C349S/D138N/D201E/E176V/E187T/E204Q/E69G/I76V/K202T/L119W/R155S/R180L/S121T/S35A/S48A/V127L/V306I/V36M/Y140L) (assay: not given). Settings: not given.
Type: binding

Row | Sequence | Normalized average relative binding affinity (ARB), HLA B*5401
45 | XXVXXXXXX [3064.0058] | 0.034
46 | XXWXXXXXX [3064.0059] | 1.0
47 | XXXAXXXXX [3064.0061] | 0.41
48 | XXXCXXXXX [3064.0062] | 0.22

These sequences were tested against HLA B*5801 (Homo sapiens, UniProt P01889, A329T/C349S/D201E/D98Y/E176V/E187L/E204Q/E69T/G107R/I218V/I90N/K202T/L105A/L119I/N104I/N87E/Q89R/Q94S/R106L/R155S/R180L/R86G/S101N/S121R/S35A/S48A/T118I/V127L/V306I/V36M/Y140S/Y91M) (assay: not given). Settings: not given.
Type: binding

Row | Sequence | Normalized average relative binding affinity (ARB), HLA B*5801
49 | XXVXXXXXX [3064.0058] | 1.0
50 | XXWXXXXXX [3064.0059] | 0.29
51 | XXXAXXXXX [3064.0061] | 0.46
52 | XXXCXXXXX [3064.0062] | 0.23

These sequences were tested against HLA B*5802 (Homo sapiens, UniProt P01889, A329T/C349S/D201E/D98Y/E176V/E187L/E204Q/E69T/G107R/I218V/I90N/K202T/L105A/N104I/N87E/Q89R/Q94S/R106L/R155S/R180L/R86G/S101N/S121W/S35A/S48A/V127L/V306I/V36M/Y140S/Y91M) (assay: not given). Settings: not given.
Type: binding

Row | Sequence | Normalized average relative binding affinity (ARB), HLA B*5802
53 | XXVXXXXXX [3064.0058] | 0.56
54 | XXWXXXXXX [3064.0059] | 0.95
55 | XXXAXXXXX [3064.0061] | 0.51
56 | XXXCXXXXX [3064.0062] | 0.52

These sequences were tested against H-2 D^b (Mus musculus, UniProt P01899) (assay: not given). Settings: not given.
Type: binding

Chain of H-2 D^b (P01887 21-119): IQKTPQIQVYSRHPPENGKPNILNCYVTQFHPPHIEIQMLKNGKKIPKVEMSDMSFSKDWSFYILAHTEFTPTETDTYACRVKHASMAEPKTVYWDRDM
Chain of H-2 D^b (P01899 25-362): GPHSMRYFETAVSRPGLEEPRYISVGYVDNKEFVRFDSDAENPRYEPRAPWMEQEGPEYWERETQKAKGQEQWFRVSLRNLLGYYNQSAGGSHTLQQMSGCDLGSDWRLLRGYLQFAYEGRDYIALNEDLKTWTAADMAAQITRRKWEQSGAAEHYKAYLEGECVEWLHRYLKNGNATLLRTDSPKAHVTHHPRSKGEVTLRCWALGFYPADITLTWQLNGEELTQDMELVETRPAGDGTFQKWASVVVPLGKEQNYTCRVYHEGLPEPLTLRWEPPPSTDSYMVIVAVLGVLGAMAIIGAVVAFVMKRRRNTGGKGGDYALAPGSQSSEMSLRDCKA

Row | Sequence | Normalized average relative binding affinity (ARB), H-2 Db
57 | XXVXXXXXX [3064.0058] | 0.17
58 | XXWXXXXXX [3064.0059] | 0.18
59 | XXXAXXXXX [3064.0061] | 0.69
60 | XXXCXXXXX [3064.0062] | 1.0

What follows are sequences tested against H-2 D^d (Mus musculus, UniProt P01900) (assay: not given). Settings: not given.
Type: binding

Chain of H-2 D^d (P01900 whole entry, looked up): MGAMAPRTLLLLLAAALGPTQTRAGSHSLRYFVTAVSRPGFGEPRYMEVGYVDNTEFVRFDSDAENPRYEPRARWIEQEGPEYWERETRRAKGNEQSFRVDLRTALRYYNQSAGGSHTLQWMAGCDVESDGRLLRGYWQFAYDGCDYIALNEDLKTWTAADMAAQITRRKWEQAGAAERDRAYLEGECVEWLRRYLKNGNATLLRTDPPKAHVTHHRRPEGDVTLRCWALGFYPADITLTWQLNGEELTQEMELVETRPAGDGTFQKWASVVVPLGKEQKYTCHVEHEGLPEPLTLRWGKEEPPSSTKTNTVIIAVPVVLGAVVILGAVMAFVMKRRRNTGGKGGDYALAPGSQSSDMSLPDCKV

Row | Sequence | Normalized average relative binding affinity (ARB), H-2 Dd
61 | XXVXXXXXX [3064.0058] | 0.0094
62 | XXWXXXXXX [3064.0059] | 0.0028
63 | XXXAXXXXX [3064.0061] | 0.52
64 | XXXCXXXXX [3064.0062] | 0.56

What follows are sequences tested against H-2 K^k (Mus musculus, UniProt P04223) (assay: not given). Settings: not given.
Type: binding

Chain of H-2 K^k (P01887 21-119): as the sequence (P01887 21-119) above
Chain of H-2 K^k (P04223 22-369): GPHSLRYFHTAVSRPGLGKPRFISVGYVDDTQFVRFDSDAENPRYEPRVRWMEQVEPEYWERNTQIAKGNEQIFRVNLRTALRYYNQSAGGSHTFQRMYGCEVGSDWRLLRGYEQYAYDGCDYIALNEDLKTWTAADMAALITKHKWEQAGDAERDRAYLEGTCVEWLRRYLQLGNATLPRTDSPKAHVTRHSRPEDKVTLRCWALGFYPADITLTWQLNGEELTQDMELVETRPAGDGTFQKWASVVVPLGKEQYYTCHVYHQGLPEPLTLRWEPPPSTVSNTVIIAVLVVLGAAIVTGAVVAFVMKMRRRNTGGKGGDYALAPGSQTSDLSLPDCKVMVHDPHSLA

Row | Sequence | Normalized average relative binding affinity (ARB), H-2 Kk
65 | XXVXXXXXX [3064.0058] | 0.26
66 | XXWXXXXXX [3064.0059] | 0.48
67 | XXXAXXXXX [3064.0061] | 0.63
68 | XXXCXXXXX [3064.0062] | 0.37

These sequences were tested against HLA A*0201 (Homo sapiens, UniProt P04439, D140Y/D185E/D98H/E176V/E277Q/G131W/G231S/I119V/I121R/I166T/I218V/L300P/L318F/N151K/N90K/P208A/P217A/Q86G/Q94H/R138H/R169H/T345S) (assay: not given). Settings: positional scanning combinatorial 9-mer library; normalized to 1.0 for the best residue at each position.

Row | Sequence | Normalized average relative binding affinity (ARB), HLA A*0201
69 | XXVXXXXXX [3064.0058] | 0.25
70 | XXWXXXXXX [3064.0059] | 0.58
71 | XXXAXXXXX [3064.0061] | 0.90
72 | XXXCXXXXX [3064.0062] | 0.20
